Where “and” joins values, the source holds several entries; their conditions need not be identical. Equal values may be shown once.
Experiments:
Mu-type opioid receptor = Mu-type opioid receptor (Homo sapiens, UniProt P35372)
[1] = molecular target: T1, Alpha-1A adrenergic receptor (Homo sapiens, UniProt P35348); assay type: functional, cell-based
T1 sequence (P35348 whole entry): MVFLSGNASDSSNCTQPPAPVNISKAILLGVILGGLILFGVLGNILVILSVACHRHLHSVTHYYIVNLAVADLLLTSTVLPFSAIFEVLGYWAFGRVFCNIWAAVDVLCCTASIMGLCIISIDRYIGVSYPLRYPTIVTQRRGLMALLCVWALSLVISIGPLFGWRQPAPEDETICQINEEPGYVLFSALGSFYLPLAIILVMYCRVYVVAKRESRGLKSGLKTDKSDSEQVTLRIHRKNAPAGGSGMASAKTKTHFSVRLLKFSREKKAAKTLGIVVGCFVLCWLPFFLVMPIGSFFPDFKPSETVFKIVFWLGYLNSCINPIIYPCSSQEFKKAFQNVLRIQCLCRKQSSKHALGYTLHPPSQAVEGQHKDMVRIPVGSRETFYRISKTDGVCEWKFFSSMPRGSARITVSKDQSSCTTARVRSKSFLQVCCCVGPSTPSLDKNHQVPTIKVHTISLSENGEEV

Vasopressin V1a receptor = Vasopressin V1a receptor (Homo sapiens, UniProt P37288)
Chain of Vasopressin V1a receptor (P37288 whole entry): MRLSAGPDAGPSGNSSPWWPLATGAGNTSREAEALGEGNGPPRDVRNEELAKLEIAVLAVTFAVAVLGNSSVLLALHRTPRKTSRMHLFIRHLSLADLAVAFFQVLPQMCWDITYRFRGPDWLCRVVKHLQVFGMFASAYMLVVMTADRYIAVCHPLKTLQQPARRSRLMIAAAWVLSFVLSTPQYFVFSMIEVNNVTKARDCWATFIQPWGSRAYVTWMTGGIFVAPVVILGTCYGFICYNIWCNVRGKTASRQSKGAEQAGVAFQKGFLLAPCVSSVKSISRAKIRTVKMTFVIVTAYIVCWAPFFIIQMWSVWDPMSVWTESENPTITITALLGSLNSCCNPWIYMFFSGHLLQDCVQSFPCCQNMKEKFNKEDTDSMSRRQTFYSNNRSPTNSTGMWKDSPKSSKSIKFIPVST

[2] = molecular target: Beta-2 adrenergic receptor (Homo sapiens, UniProt P07550)
Chain of Beta-2 adrenergic receptor (P07550 whole entry): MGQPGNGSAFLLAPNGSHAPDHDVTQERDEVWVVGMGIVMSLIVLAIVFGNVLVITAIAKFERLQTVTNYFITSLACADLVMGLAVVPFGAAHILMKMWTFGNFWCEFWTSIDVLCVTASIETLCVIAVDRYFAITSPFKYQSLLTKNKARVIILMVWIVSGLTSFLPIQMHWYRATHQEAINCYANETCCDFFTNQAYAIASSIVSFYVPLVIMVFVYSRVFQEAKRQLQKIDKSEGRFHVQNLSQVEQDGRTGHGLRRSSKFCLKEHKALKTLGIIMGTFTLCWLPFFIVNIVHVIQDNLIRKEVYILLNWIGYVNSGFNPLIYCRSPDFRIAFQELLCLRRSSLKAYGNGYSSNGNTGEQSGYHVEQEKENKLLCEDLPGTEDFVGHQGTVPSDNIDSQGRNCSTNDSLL

[3] = molecular target: Gamma-aminobutyric acid receptor subunit alpha-1 (Rattus norvegicus, UniProt P62813); assay type: functional
Chain of Gamma-aminobutyric acid receptor subunit alpha-1 (P62813 whole entry): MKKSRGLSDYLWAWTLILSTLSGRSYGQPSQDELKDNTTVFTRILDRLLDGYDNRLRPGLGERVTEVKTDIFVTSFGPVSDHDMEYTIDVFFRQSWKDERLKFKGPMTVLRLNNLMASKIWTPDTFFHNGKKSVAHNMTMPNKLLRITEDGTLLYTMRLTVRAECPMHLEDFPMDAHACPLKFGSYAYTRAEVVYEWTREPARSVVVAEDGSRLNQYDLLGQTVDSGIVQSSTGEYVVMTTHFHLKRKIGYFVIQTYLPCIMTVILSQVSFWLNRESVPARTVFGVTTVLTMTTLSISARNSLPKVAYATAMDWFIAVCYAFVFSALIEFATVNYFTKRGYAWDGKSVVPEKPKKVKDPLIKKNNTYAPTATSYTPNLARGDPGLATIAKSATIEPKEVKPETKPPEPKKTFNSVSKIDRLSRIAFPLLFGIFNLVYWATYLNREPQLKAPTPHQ

Cannabinoid receptor 1 = Cannabinoid receptor 1 (Homo sapiens, UniProt P21554)
Chain of Cannabinoid receptor 1 (P21554 whole entry): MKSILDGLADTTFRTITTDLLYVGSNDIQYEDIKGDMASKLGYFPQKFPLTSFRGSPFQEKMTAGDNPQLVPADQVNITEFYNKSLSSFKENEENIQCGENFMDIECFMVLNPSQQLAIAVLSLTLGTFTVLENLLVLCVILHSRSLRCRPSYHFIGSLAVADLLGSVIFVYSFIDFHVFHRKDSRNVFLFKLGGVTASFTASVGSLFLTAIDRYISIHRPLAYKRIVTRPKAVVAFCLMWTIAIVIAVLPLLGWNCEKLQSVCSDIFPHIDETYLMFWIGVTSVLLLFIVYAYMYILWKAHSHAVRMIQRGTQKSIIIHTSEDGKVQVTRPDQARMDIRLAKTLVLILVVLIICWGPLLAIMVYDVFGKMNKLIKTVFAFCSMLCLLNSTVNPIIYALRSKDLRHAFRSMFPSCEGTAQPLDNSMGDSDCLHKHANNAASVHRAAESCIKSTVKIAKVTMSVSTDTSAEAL

[4] = molecular target: T2, Type-1 angiotensin II receptor (Homo sapiens, UniProt P30556)
T2 sequence (P30556 whole entry): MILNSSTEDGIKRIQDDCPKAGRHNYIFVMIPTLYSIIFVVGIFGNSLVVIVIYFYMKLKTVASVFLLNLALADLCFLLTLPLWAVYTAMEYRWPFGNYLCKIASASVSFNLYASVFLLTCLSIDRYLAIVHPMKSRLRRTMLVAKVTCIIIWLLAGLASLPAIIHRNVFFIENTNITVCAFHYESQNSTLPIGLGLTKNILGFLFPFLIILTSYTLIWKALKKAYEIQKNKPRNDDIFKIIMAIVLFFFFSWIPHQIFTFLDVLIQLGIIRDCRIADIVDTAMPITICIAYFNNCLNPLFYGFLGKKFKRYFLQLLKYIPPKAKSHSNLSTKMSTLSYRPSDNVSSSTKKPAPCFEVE

[5] = molecular target: T3, Muscarinic acetylcholine receptor M1 (Homo sapiens, UniProt P11229); assay type: functional
T3 sequence (P11229 whole entry): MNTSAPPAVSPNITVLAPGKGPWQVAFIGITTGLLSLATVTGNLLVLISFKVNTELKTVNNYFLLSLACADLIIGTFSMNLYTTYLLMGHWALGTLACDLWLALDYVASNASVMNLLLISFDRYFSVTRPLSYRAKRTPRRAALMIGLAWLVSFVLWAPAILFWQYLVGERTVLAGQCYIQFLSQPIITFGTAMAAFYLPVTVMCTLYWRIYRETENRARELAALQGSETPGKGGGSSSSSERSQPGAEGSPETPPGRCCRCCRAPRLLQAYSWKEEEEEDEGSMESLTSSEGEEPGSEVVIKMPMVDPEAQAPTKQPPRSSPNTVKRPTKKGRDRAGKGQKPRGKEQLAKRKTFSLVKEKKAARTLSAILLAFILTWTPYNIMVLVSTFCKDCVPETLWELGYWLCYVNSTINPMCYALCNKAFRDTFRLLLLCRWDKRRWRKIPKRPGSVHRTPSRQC

Vasopressin V2 receptor = Vasopressin V2 receptor (Homo sapiens, UniProt P30518)
Chain of Vasopressin V2 receptor (P30518 whole entry): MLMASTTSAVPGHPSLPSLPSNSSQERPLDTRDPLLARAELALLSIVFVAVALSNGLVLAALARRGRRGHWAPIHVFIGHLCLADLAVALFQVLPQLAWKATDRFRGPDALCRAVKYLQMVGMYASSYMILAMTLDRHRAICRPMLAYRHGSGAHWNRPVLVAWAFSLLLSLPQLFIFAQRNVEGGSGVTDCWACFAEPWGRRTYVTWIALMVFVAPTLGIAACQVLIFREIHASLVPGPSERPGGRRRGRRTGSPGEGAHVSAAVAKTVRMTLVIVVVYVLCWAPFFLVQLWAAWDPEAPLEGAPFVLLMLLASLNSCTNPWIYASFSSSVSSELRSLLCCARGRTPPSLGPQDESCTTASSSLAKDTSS

[6] = molecular target: T4, Alpha-2A adrenergic receptor (Homo sapiens, UniProt P08913); assay type: functional, cell-based
T4 sequence (P08913 whole entry): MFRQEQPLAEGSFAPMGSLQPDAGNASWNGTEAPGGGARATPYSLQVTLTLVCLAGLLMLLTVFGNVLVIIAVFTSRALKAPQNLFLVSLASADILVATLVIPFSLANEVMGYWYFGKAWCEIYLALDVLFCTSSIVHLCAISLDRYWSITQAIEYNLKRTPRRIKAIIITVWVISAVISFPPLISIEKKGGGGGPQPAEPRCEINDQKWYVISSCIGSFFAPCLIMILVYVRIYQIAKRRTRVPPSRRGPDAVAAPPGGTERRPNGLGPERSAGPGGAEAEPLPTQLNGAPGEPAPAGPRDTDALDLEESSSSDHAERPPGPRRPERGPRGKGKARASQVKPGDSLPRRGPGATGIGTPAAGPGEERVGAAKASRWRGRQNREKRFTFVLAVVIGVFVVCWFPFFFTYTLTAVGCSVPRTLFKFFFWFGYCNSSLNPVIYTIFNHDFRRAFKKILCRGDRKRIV

Histamine H2 receptor = Histamine H2 receptor (Homo sapiens, UniProt P25021); assay type: functional, cell-based
Chain of Histamine H2 receptor (P25021 whole entry): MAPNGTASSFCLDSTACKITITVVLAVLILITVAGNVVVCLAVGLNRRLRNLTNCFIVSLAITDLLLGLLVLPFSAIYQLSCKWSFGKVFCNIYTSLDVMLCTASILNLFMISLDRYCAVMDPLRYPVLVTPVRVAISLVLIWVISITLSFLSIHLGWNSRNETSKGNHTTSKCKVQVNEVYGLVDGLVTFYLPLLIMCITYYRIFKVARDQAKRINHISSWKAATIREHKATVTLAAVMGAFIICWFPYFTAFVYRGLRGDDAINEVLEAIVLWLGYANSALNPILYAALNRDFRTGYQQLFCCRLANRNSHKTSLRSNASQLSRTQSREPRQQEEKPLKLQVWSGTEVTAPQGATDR

Melanocortin receptor 4 = Melanocortin receptor 4 (Homo sapiens, UniProt P32245)
Chain of Melanocortin receptor 4 (P32245 whole entry): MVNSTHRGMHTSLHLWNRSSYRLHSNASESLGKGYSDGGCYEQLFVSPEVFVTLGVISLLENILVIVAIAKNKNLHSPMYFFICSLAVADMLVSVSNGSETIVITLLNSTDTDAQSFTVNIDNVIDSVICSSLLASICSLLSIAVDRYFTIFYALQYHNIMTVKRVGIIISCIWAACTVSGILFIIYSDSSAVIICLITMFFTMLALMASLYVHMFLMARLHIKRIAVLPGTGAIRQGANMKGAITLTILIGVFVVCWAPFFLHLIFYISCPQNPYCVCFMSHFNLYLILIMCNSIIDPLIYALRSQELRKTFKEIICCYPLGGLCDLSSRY

[7] = molecular target: 5-hydroxytryptamine receptor 2B (Homo sapiens, UniProt P41595); assay type: functional, cell-based
Chain of 5-hydroxytryptamine receptor 2B (P41595 whole entry): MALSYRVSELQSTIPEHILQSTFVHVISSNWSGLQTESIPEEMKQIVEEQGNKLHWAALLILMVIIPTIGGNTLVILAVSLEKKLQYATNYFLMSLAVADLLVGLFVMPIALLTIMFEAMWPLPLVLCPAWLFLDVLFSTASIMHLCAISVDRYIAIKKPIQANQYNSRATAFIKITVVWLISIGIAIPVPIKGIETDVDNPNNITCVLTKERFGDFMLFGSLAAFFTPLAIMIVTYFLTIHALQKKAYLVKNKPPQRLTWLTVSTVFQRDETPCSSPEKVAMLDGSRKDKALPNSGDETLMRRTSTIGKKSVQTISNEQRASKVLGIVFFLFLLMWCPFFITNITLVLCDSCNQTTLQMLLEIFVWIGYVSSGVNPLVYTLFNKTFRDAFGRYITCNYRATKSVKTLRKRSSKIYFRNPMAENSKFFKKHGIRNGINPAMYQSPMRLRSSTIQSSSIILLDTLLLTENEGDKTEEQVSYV

[8] = molecular target: T5, Amine oxidase [flavin-containing] A (Homo sapiens, UniProt P21397); assay type: functional
T5 sequence (P21397 whole entry): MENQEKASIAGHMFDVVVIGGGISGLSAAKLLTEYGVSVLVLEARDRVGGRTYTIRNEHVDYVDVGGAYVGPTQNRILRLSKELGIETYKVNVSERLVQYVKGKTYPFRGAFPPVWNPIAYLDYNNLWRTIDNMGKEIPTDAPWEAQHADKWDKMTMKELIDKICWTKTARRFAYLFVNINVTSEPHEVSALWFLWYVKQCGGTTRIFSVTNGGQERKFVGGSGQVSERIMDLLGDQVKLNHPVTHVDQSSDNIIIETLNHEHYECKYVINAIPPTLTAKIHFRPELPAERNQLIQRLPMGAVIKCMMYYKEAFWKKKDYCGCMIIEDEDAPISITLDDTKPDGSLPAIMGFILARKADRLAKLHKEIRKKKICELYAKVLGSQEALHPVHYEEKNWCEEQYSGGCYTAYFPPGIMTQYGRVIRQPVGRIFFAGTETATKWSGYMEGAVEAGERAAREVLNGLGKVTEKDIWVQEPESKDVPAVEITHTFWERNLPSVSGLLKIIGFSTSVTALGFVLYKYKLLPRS
Also: assay procedure not described here.

Chain of Mu-type opioid receptor (P35372 whole entry): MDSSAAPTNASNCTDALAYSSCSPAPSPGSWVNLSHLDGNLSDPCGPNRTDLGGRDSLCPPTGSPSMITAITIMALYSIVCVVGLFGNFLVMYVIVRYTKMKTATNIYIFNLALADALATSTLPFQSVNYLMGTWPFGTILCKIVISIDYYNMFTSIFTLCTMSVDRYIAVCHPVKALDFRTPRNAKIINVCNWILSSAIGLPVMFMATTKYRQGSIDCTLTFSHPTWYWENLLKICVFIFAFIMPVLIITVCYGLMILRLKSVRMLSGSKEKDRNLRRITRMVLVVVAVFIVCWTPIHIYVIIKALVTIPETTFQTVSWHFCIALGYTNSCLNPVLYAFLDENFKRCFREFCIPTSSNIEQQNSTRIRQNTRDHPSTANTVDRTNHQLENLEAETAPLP

SMILES	AC50 (Mu-type opioid receptor)	AC50 [1]	AC50 (Vasopressin V1a receptor)	AC50 [2]	AC50 [3]	AC50 (Cannabinoid receptor 1)	AC50 [4]	AC50 [5]	AC50 (Vasopressin V2 receptor)	AC50 [6]	AC50 (Histamine H2 receptor)	AC50 (Melanocortin receptor 4)	AC50 [7]	AC50 [8]
NC(=O)CCC/N=C(\c1ccc(Cl)cc1)c1cc(F)ccc1O [PROGABIDE]	> 30 µM	> 30 µM	> 10 µM	> 10 µM	> 10 µM	> 10 µM	> 10 µM	> 10 µM	> 10 µM	> 10 µM	> 10 µM	> 10 µM	> 10 µM	> 10 µM
CC(NCCc1ccc(O)cc1)C(O)c1ccc(O)cc1 (stereo unspecified) [RITODRINE]	13 µM and 9.2 µM	> 30 µM	> 30 µM	4.71 µM and 4.14 µM	> 30 µM	> 30 µM	> 30 µM	> 30 µM	> 30 µM	> 30 µM	> 30 µM	> 10 µM	> 30 µM	> 30 µM
C=CC(N)CCC(=O)O (stereo unspecified) [VIGABATRIN]	> 30 µM	> 30 µM	> 10 µM	> 10 µM	> 10 µM	> 10 µM	> 10 µM	> 10 µM	> 10 µM	> 10 µM	> 10 µM	> 10 µM	> 10 µM	> 10 µM
N#C[C@@H]1CCCN1C(=O)CNC12CC3CC(CC(O)(C3)C1)C2 [VILDAGLIPTIN]	> 10 µM	> 30 µM	> 30 µM	> 10 µM	> 30 µM	> 30 µM	> 30 µM	> 30 µM	> 30 µM	> 30 µM	> 30 µM	> 30 µM	> 30 µM	> 30 µM
